In patent publication US7368279B2, “Three dimensional bioengineered smooth muscle tissue and sphincters and methods therefor” (The Regents of The University of Michigan, priority 2004, dated 2008):

What was measured:
rat IAS cells = assay: Acetylcholine-induced contraction of isolated sphincteric smooth muscle cells of adult and old rats; assay type: cell-based; conditions: for cell population with less than 80 μM cell length: 30 second stimulation
Experimental: To determine the effect of acetylcholine on contraction of isolated muscle cells, acetylcholine (10^−7 M) was added to a suspension of isolated smooth muscle cells for 30 seconds or 4 minutes with untreated cells as controls. The reaction was stopped and cells were fixed by the addition of 0.1 ml of acrolein at a final concentration of 0.1%. Individual cell lengths were measured by computerized image micrometry (Bitar et al., Am J Physiol 242: G400-G407, 1982. Bitar et al., Science 216: 531-533, 1982). The length of cells in the control state or after addition of acetylcholine was obtained by measuring 30-50 cells encountered randomly in successive microscopic fields from each of three separate experiments. The contractile response is defined as the decrease in the average length of the cells counted and is expressed as the percent change from the control length. Acetylcholine-induced contraction of isolated sphincteric smooth muscle cells was defined as the percent decrease in cell length compared to control. […] In old rats, 10^−7M acetylcholine-induced contraction at 30 seconds was approximately 3-fold less forceful (12.8±4.4%) than adult rat cells. […] In addition, after acetylcholine-induced contraction, there was a preponderance of longer cells and in old rats (24% above 80 μm) when compared to adult counterparts (17% above 80).

[1] = test system: association of actin with myosin in sphincteric smooth muscle cells; assay: Immunoprecipitation/immunoblot: acetylcholine-induced association of actin with myosin; assay type: cell-based, rat; conditions: 0.1 μM acetylcholine
Experimental: Decreased association of actin with myosin and decreased association of tropomyosin with HSP27 in sphincteric smooth muscle cells from old rats (28-33 month old) was observed when compared to adult counterparts (18 months old). Whole cell lysates (WCL) from acetylcholine (0.1 μM) stimulated and unstimulated sphincteric smooth muscle cells of adult and old rats were extracted and immunoprecipitated as described previously (Somara et al, Amer. J. Physiol. 286(6): C1290-1301, 2004). Briefly, actin was immunoprecipited using an anti-actin antibody followed by immunoblotting with an anti-myosin antibody. […] To further investigate phospho-HSP27-induced reinstatement of smooth muscle cell contractile function, sphincter smooth muscle cells isolated from old rats IAS were transfected with phosphomimic-HSP27 as described previously. Whole cells lysates were extracted and immunoprecipitated as described previously (Somara et al, Amer. J. Physiol. 286(6): C1290-1301, 2004).

bioengineered IAS rings = assay: Isometric force of bioengineered IAS rings from adult, old and phosphomimic-HSP27 transfected old rat cells; assay type: cell-based
Experimental: To measure the passive baseline force, the differentiation media in the plate containing the bioengineered sphincter was replaced with 37° C. Krebs solution (NaCl (119 mM), KCl (4.6 mM), NaHCO3 (15 mM), CaCl2 (1.5 mM), MgCl2 (1.2 mM), […], and glucose (11 mM)) and the plate was placed on a heated aluminum platform, which maintained a temperature of 37° C. until the testing was complete. For contractility measurements, one end of the bioengineered sphincter was anchored by a stainless steel pin (10 mm×0.1 mm diameter) to the PDMS substrate within the plate, while another stainless steel pin was bent in the shape of a hook and attached by canning wax to a force transducer (resolution of 1.4 μN and range of 2mN) as previously described (Dennis et al., In Vitro Cellular & Developmental Biology Animal 36: 327-335, 2000, Macpherson et al., J Physiol 500: 523-533, 1997) and as depicted in FIG. 1 (Panels F and G). The bioengineered sphincter was stretched approximately 50% of its resting length using a three-axis micromanipulator. The ring was allowed to sit for 20 minutes in order to reestablish a stable baseline level of force (Pb), which was measured as the average baseline passive force preceding stimulation. All force measurements were collected at 100 samples/second for 60 seconds and recorded using a computer with LabVIEW data acquisition software (National Instruments, Austin, Tex.). A median filter of rank 2 was applied to all raw force data before being stored to minimize digitization noise without causing a phase delay for rapidly changing forces. The peak isometric force (ΔP) was determined by subtracting the Pb from the total force values. Specific force (sΔP) was calculated by dividing ΔP by the CSA. Data analysis was done using LabVIEW and Microsoft Excel software programs. Each measurement was repeated at least three times and the mean value was recorded. Bioengineered sphincter rings using smooth muscle cells isolated from IAS of adult and old rats were generated as described in Example 2 to study the molecular mechanism of aging on sphincteric smooth muscle. […] This corresponds to the previously described acetylcholine-induced contraction of human IAS muscle strips (16, 17, 27). […] Phosphomimic-HSP27 was introduced into the sphincteric smooth muscle cells from old rats. […] To test this hypothesis on a physiological level, bioengineered sphincter rings were made from phosphomimic-HSP27 transfected-IAS smooth muscle cells of old rats and the contractile response was assessed.

CC(=O)OCC[N+](C)(C)C [acetylcholine]
fold less forceful contraction in old than adult rat cells (rat IAS cells; 10^−7 M acetylcholine, 30 seconds): approximately 3 fold
contraction, percent decrease in cell length compared to control (rat IAS cells; adult rat IAS cells, 10^−7 M acetylcholine, 30 seconds): 44.7±1.34%
contraction, percent decrease in cell length compared to control (rat IAS cells; adult rat IAS cells, 10^−7 M acetylcholine, 4 minutes): 40.65±1.43%
cell population with less than 80 μM cell length (rat IAS cells; adult rat IAS cells, 10^−7 M acetylcholine): 89%
longer cells above 80 after acetylcholine-induced contraction (rat IAS cells; adult rats): 17%
contraction, percent decrease in cell length compared to control (rat IAS cells; old rat IAS cells, 10^−7 M acetylcholine, 30 seconds): 12.8±4.4%
contraction, percent decrease in cell length compared to control (rat IAS cells; old rat IAS cells, 10^−7 M acetylcholine, 4 minutes): 16.99±6.07%
cell population with less than 80 μM cell length (rat IAS cells; old rat IAS cells, 10^−7 M acetylcholine): 71%
longer cells above 80 μm after acetylcholine-induced contraction (rat IAS cells; old rats): 24%
acetylcholine-induced association of actin with myosin ([1]; adult rats, 30 seconds): 243.70±8.20%
acetylcholine-induced association of actin with myosin ([1]; adult rats, 4 minutes): 274.34±10.43%
acetylcholine-induced association of actin with myosin ([1]; old rats, 30 sec): 175.32±10.12%
acetylcholine-induced association of actin with myosin ([1]; old rats, 4 minutes): 231.79±10.45%
maximum force of old rings, fold less than adult rings (FIG. 5 panel B) (bioengineered IAS rings; 10^−6 M acetylcholine): approximately 3 fold
average ΔP / force generated (bioengineered IAS rings; adult rat IAS rings, 10^−6 M acetylcholine): 8.925±2.4 μN
maximum force generated (FIG. 5 panel A) (bioengineered IAS rings; adult rat rings, n=3): 10.4±1.27
force generated (bioengineered IAS rings; old rat IAS rings, 10^−6 M acetylcholine): 5.55±1.1 μN
maximum force generated (FIG. 5 panel A) (bioengineered IAS rings; old rat rings, n=4): 5.5±1.09
less force generated by old rings than adult rings (bioengineered IAS rings; stimulated with acetylcholine): approximately 50%
